Test results reported in patent US20100062994A1, “Adenosine Receptor Antagonists” (SANTARIS PHARMA A/S, priority 2006, published 2010).

biological target: T1, A3 human recombinant receptor (Homo sapiens, UniProt P0DMS8); test: AequoScreen adenosine A3 receptor assay, antagonist mode (luminescence, against reference agonist IB-MECA); type: cell-based; conditions: AequoScreen cells expressing A3 human recombinant receptor and Gα16; inhibition of IB-MECA at EC80; duplicate determinations at 8 concentrations
T1 sequence (P0DMS8 1-318): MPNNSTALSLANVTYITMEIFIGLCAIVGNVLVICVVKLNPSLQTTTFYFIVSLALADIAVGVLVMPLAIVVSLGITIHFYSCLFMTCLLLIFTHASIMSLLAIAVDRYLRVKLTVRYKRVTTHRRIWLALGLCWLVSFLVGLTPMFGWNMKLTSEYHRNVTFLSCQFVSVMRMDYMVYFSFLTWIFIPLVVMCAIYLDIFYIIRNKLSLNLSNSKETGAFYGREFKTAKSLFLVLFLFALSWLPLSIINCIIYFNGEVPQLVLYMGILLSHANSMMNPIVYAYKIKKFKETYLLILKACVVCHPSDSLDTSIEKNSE
Experimental: AequoScreen™ (Euroscreen, Belgium) cell lines expressing the A3 human recombinant receptor and the promiscuous G protein Gα16 were used throughout the study. AequoScreen™ cells were cultured following recommended conditions for at least one week prior to the test. The day before the test, cells were harvested with PBS-EDTA, washed and re-suspended in BSA-DMEM12 (Dulbecco's Modified Eagles Medium—Ham's F12 with 0.1% BSA). Suspended cells were then incubated at room temperature with coelenterazine h overnight. For agonist and antagonist testing, 50 μl of the cell suspension were injected onto 50 μl of the test compound or control in 96-well plates, and the resulting emission of light measured for the determination of cell activation. After the first reading, and following an incubation time of 15-30 min, 100 μl of the reference agonist (IB-MECA) at a concentration equal to the EC80 of the day of the experiment were injected onto the cell suspension containing the test compounds. The resulting emission of light was measured for the determination of antagonistic effects. Light emission for agonist and antagonist tests was recorded using a Hamamatsu FDSS-6000 reader. For agonist data, percentages of activation were calculated on the basis of the activation (luminescence data) induced by the reference agonist at a saturating concentration (EC100). For antagonist data, percentages of inhibition were calculated on the basis of the activation (luminescence data) induced by the reference agonist at a concentration equal to the EC80. The test compounds were tested as duplicate determinations at 8 concentrations of 100, 10, 1, 0.1 μM and 10, 1, 0.1, and 0.01 nM for agonist activity and 50, 5, 0.5, 0.05 μM and 5, 0.5, 0.05, and 0.005 nM for antagonist activity. Dose-response data, EC50/IC50, from test compound was analyzed with XLfit (IDBS) software.
This assay may be used to determine the IC50 value for adenosine A3 antagonists according to the invention (see Example 42).

IC50 [nM]	Compound
154	OC[C@@]12CO[C@@H]([C@H](n3cnc4c(NCc5cccc(I)c5)ncnc43)O1)[C@@H]2O [SPN0169, (1S,3R,4R,7S)-7-Hydroxy-1-hydroxymethyl-3-(N6-(3-iodobenzyl)-adenin-9-yl)-2,5-dioxabicyclo[2:2:1]heptane]
816	CNC(=O)[C@@]12CO[C@@H]([C@H](n3cnc4c(NCc5cccc(I)c5)ncnc43)O1)[C@@H]2N=[N+]=[N-] [SPN0192, (1S,3R,4R,7S)-(7-azido-3-(N6-(3-iodobenzyl)-adenin-9-yl)-2,5-dioxabicyclo[2:2:1]hept-1-yl)-N-methylcarboxamide]
8.2	OCC12CNC(C(n3cnc4c(NCc5cccc(I)c5)ncnc43)O1)C2O (single isomer, unassigned) [SPN0234]
638	CNC(=O)[C@@]12CO[C@@H]([C@H](n3cnc4c(NCc5cccc(Br)c5)ncnc43)O1)[C@@H]2O [SPN0186, (1R,3R,4R,7S)-(7-hydroxy-3-(N6-(3-bromobenzyl)-adenin-9-yl)-2,5-dioxabicyclo[2:2:1]hept-1-yl)-N-methylcarboxamide]
683	CNC(=O)[C@@]12CO[C@@H]([C@H](n3cnc4c(NCc5cccc(I)c5)ncnc43)O1)[C@@H]2N [SPN0195, (1S,3R,4R,7S)-(7-amino-3-(N6-(3-iodobenzyl)-adenin-9-yl)-2,5-dioxabicyclo[2:2:1]hept-1-yl)-N-methylcarboxamide]
391	CNC(=O)[C@]12CO[C@@H]([C@H](n3cnc4c(NCc5cccc(I)c5)nc(Cl)nc43)O1)[C@@H]2O [SPN0175, (1R,3R,4R,7S)-(7-hydroxy-3-(N6-(3-iodobenzyl)-2-chloro-adenin-9-yl)-2,5-dioxabicyclo[2:2:1]hept-1-yl)-N-methylcarboxamide]
12	CNC(=O)[C@@]12CN[C@@H]([C@H](n3cnc4c(NCc5cccc(I)c5)ncnc43)O1)[C@@H]2O [SPN0235, (1R,3R,4R,7S)-(7-hydroxy-3-(N6-(3-iodobenzyl)-adenin-9-yl)-2-oxa-5-azabicyclo[2:2:1]hept-1-yl)-N-methylcarboxamide]
94	OCC12CNC(C(n3cnc4c(NCc5cccc(I)c5)ncnc43)O1)C2O (single isomer, unassigned) [SPN0240]

Compound	IC50 [nM]
CNC(=O)[C@@]12CN[C@@H]([C@H](n3cnc4c(N)ncnc43)O1)[C@@H]2O [SPN0238, (1R,3R,4R,7S)-(7-hydroxy-3-(adenin-9-yl)-2-oxa-5-azabicyclo[2:2:1]hept-1-yl)-N-methylcarboxamide]	173
OC[C@@]12CO[C@@H]([C@H](n3cnc4c(NCc5cccc(I)c5)nc(Cl)nc43)O1)[C@@H]2O [SPN0174, (1S,3R,4R,7S)-7-Hydroxy-1-hydroxymethyl-3-(N6-(3-iodobenzyl)-2-chloro-adenin-9-yl)-2,5-dioxabicyclo[2:2:1]heptane]	209
